Patent US20240287093A1, “HIGH ACTIVITY STING PROTEIN AGONIST” (ADLAI NORTYE BIOPHARMA CO., LTD., priority 2018, published 2024)

What was measured:
Assay type in all cases: cell-based
STING variants (HAQ) = target: T1, STING variants (HAQ) (Homo sapiens, UniProt Q86WV6, G230A/R293Q/R71H); test: SEAP reporter assay in HEK-Blue ISG KO-STING cells transfected with STING HAQ variant (Method 1); details: 24 h
T1 construct: host or cells: HEK-Blue ISG KO-STING cells (Invivogen, hkb-kostg)
Description: (§1) Example I: STING Variants (WT & HAQ) Activation by Compounds in HEK-Blue™ ISG KO-STING Cells (Method 1)
(§2) Activation of STING can be determined using a SEAP reporter assay in HEK-Blue™ ISG KO-STING cells (Invivogen, cat #hkb-kostg) transfected with plasmids expressing STING variants (WT & HAQ) (referred to WO2017/175147A1). STING variants (WT & HAQ) vector were constructed based on STING-232H vector (Origene, RC208418). GFP vector (VT2069) was bought from Youbio. The detailed protocol as follows: HEK-Blue™ ISG KO-STING cells were harvest and seeding into 96 well plate, the final cell number was 0.8×10^5 cells/well. Transfections were prepared using Lipofectamine 2000 (Invitrogen, Cat #11668-027) following the manufacturer's instructions (Lipo2000:DNA=1:10), 20 ul of transfection suspension containing 1 ng STING vector was added to cell culture plate and incubated at 37° C., 5% CO2 for 24 h. After 24 hours incubation, compounds were added at proper concentration, and the final DMSO concentration was 0.5%. After 24 h incubation, the supernatant was collected to detect SEAP signal using Great EscAPe SEAP chemiluminescence KIT (Clontech, cat #631738) and cells were collected to detect cell viability using CellTiter-Glo Luminescent Cell Viability Assay (Promega, cat #G7573) following the manufacturer's instructions. The data were described by the ratio of the stimulating signal of compounds to 0.5% DMSO.

STING variants (WT) = target: T2, STING variants (WT) (Homo sapiens, UniProt Q86WV6); test: SEAP reporter assay in HEK-Blue ISG KO-STING cells transfected with STING WT variant (Method 1); details: 24 h
T2 construct: host or cells: HEK-Blue ISG KO-STING cells (Invivogen, hkb-kostg)
Description: as §1, §2

STING = target: T3, STING (Homo sapiens, UniProt Q86WV6, G230A/H232R/R293Q/R71H); test: IFNβ release from THP1 by STING activation (hIFNβ ELISA); details: THP1 cells, 24 h, IFN-β in supernatant; inactive = IFNβ not detected at the maximum concentration of compounds
T3 construct: THP1 was purchased from National Collection of Authenticated Cell Cultures (Cat #TCHu 57); host or cells: THP1
Method: Example III: Compound Stimulate THP1 to Release IFNβ by STING Activation
In this assay, activation of STING by compounds was evaluated by detecting their ability to stimulate the secretion of IFN-β (interferon-beta) from THP1. THP1 was purchased from National Collection of Authenticated Cell Cultures (Cat #TCHu 57). The top dose of compounds was setted according to their solubility. First, Compounds were 3 times diluted with medium, 8-dose points in total. The final DMSO concentration was 0.2%. THP1 during the logarithmic phase was resuspended to 2×10^6 cells/ml in assay medium. The THP1-cell suspension was dispensed into a 96-well U bottom plate containing 50 ul of compound diluted in medium. After 24 h incubation at 37° C., 5% CO2, the supernatant was collected. The concentration of IFN-β in the supernatant was measured using a human IFNβ ELISA KIT (R&D, DY814-05). The data was fitted with GraphPad Prism or XLfit to calculate EC50 values.

[1] = compound concentration 169.6 μM
[2] = compound concentration 15.65 μM

T3 sequence (Q86WV6 whole entry R71H/G230A/H232R/R293Q): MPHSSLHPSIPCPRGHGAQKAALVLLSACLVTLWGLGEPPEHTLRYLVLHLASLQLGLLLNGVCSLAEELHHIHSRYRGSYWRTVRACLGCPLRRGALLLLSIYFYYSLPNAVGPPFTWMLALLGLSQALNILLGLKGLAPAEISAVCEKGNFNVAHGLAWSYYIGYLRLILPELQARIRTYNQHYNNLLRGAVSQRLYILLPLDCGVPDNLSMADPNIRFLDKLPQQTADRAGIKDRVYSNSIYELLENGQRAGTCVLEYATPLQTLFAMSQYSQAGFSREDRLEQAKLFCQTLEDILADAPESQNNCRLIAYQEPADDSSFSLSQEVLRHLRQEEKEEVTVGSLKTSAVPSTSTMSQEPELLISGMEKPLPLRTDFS
T1 sequence (Q86WV6 whole entry R71H/G230A/R293Q): as the sequence (Q86WV6 whole entry R71H/G230A/H232R/R293Q) above, with R232H counted along it

Compound	Fold change related to DMSO control, HAQ (STING variants (HAQ); compound concentration 25 μM)	Fold change related to DMSO control, WT (STING variants (WT); compound concentration 25 μM)	EC50 (STING)	further results
CCn1nc(C)cc1C(=O)Nc1nc2cc(C(N)=O)cc3c2n1[C@@H](CCNC(=O)OCc1ccccc1)CO3 [Example 14, Benzyl (S)-(2-(7-carbamoyl-2-(1-ethyl-3-methyl-1H-pyrazole-5-carboxamido)-3,4-dihydro-5-oxa-1,2a-diazaacenaphthylen-3-yl)ethyl)carbamate]	27.44 fold	1.59 fold	–	–
CCn1nc(C)cc1C(=O)Nc1nc2cc(C(N)=O)cc3c2n1[C@@H](CCNC(=O)OC(C)(C)C)CO3 [Example 6, tert-Butyl (S)-(2-(7-carbamoyl-2-(1-ethyl-3-methyl-1H-pyrazole-5-carboxamido)-3,4-dihydro-5-oxa-1,2a-diazaacenaphthylen-3-yl)ethyl)carbamate]	–	–	–	Fold change related to DMSO control, HAQ (STING variants (HAQ); [1]): 4.41 fold; Fold change related to DMSO control, WT (STING variants (WT); [1]): 0.76 fold
CCn1nc(C)cc1C(=O)Nc1nc2cc(C(N)=O)cc3c2n1CC1(CCC1)CO3 [Example 77, 1-(1-ethyl-3-methyl-1H-pyrazole-5-carboxamido)-7H,9H-6-oxa-2,9a-diazaspiro[benzo[cd]azulene-8,1′-cyclobutan]-1,2a,2a1(5a),4-tetraene-4-carboxamide]	–	–	20.8 µM	–
CCn1nc(C)cc1C(=O)Nc1nc2cc(C(N)=O)cc3c2n1[C@@H](CCNC(=O)OCCc1ccccc1)CO3 [Example 42, Phenethyl (S)-(2-(7-carbamoyl-2-(1-ethyl-3-methyl-1H-pyrazole-5-carboxamido)-3,4-dihydro-5-oxa-1,2a-diazaacenaphthylen-3-yl)ethyl)carbamate]	–	–	–	Fold change related to DMSO control, HAQ (STING variants (HAQ); compound concentration 21.4 μM): 10.52 fold; Fold change related to DMSO control, WT (STING variants (WT); compound concentration 21.4 μM): 1.10 fold
CCn1nc(C)cc1C(=O)Nc1nc2cc(C(N)=O)cc3c2n1CC(C)(C)CN3CCO [Example 76, 1-(1-ethyl-3-methyl-1H-pyrazole-5-carboxamido)-6-(2-hydroxyethyl)-8,8-dimethyl-6,7,8,9-tetrahydro-2,6,9a-triazabenzo[cd]azulene-4-carboxamide]	–	–	9.9 µM	–
CCn1nc(C)cc1C(=O)Nc1nc2cc(C(N)=O)cc3c2n1[C@@H](CCNC(=O)/C=C/c1cccc(F)c1)CO3 [Example 38, (S,E)-2-(1-ethyl-3-methyl-1H-pyrazole-5-carboxamido)-3-(2-(3-(3-fluorophenyl)acrylamido)ethyl)-3,4-dihydro-5-oxa-1,2a-diazaacenaphthylene-7-carboxamide]	22.76 fold	2.96 fold	–	–
CCn1nc(C)cc1C(=O)Nc1nc2cc(C(N)=O)cc3c2n1C(C)(C)CO3 [Example 21, 2-(1-Ethyl-3-methyl-1H-pyrazole-5-carboxamido)-3,3-dimethyl-3,4-dihydro-5-oxa-1,2a-diazaacenaphthylene-7-carboxamide]	8.87 fold	2.18 fold	–	–
CCn1nc(C)cc1C(=O)Nc1nc2cc(C(N)=O)cc3c2n1[C@@H](CCNC(=O)/C=C/c1ccccc1OC)CO3 [Example 39, (S,E)-2-(1-ethyl-3-methyl-1H-pyrazole-5-carboxamido)-3-(2-(3-(2-methoxyphenyl)acrylamido)ethyl)-3,4-dihydro-5-oxa-1,2a-diazaacenaphthylene-7-carboxamide]	25.85 fold	2.78 fold	–	–
CCn1nc(C)c(F)c1C(=O)Nc1nc2cc(C(N)=O)cc3c2n1CC1(CCC1)CO3 [Example 78, 1-(1-Ethyl-4-fluoro-3-methyl-1H-pyrazole-5-carboxamido)-7H,9H-6-oxa-2,9a-diazaspiro[benzo[cd]azulene-8,1′-cyclobutan]-1,2a,2a1(5a),4-tetraene-4-carboxamide]	–	–	19 µM	–
CCn1nc(C)cc1C(=O)Nc1nc2cc(C(N)=O)cc3c2n1[C@@H](CCNC(=O)/C=C/c1ccc(C#N)cc1)CO3 [Example 37, (S,E)-3-(2-(3-(4-cyanophenyl)acrylamido)ethyl)-2-(1-ethyl-3-methyl-1H-pyrazole-5-carboxamido)-3,4-dihydro-5-oxa-1,2a-diazaacenaphthylene-7-carboxamide]	–	–	–	Fold change related to DMSO control, HAQ (STING variants (HAQ); compound concentration 3.11 μM): 1.85 fold; Fold change related to DMSO control, WT (STING variants (WT); compound concentration 3.11 μM): 1.07 fold
CCn1nc(C)cc1C(=O)Nc1nc2cc(C(N)=O)cc3c2n1CC(C)(C)CN3CCCOC [Example 74, 1-(1-Ethyl-3-methyl-1H-pyrazole-5-carboxamido)-6-(3-methoxypropyl)-8,8-dimethyl-6,7,8,9-tetrahydro-2,6,9a-triazabenzo[cd]azulene-4-carboxamide]	–	–	11.8 µM	–
CCn1nc(C)cc1C(=O)Nc1nc2cc(C(N)=O)cc3c2n1[C@@H](CCCCNC(=O)OCc1ccccc1)CO3 [Example 17, Benzyl (S)-(4-(7-carbamoyl-2-(1-ethyl-3-methyl-1H-pyrazole-5-carboxamido)-3,4-dihydro-5-oxa-1,2a-diazaacenaphthylen-3-yl)butyl)carbamate]	37.64 fold	1.76 fold	–	–
CCn1nc(C)cc1C(=O)Nc1nc2cc(C(N)=O)cc3c2n1C(C)(CO)CO3 (stereo not drawn) [Example 3, 2-(1-Ethyl-3-methyl-1H-pyrazole-5-carboxamido)-3-(hydroxymethyl)-3-methyl-3,4-dihydro-5-oxa-1,2a-diazaacenaphthylene-7-carboxamide]	–	–	–	Fold change related to DMSO control, HAQ (STING variants (HAQ); compound concentration 125 μM): 3.54 fold; Fold change related to DMSO control, WT (STING variants (WT); compound concentration 125 μM): 1.79 fold
CCn1nc(C)cc1C(=O)Nc1nc2cc(C(N)=O)cc3c2n1CC(C)(C)CN3CCOCc1ccccc1 [Example 75, 6-(2-(benzyloxy)ethyl)-1-(1-ethyl-3-methyl-1H-pyrazole-5-carboxamido)-8,8-dimethyl-6,7,8,9-tetrahydro-2,6,9a-triazabenzo[cd]azulene-4-carboxamide]	–	–	7.7 µM	–
CCOC(=O)/C=C/C1(C)COc2cc(C(N)=O)cc3nc(NC(=O)c4cc(C)nn4CC)n1c23 (stereo not drawn) [Example 5, Ethyl (E)-3-(7-carbamoyl-2-(1-ethyl-3-methyl-1H-pyrazole-5-carboxamido)-3-methyl-3,4-dihydro-5-oxa-1,2a-diazaacenaphthylen-3-yl)acrylate]	–	–	–	Fold change related to DMSO control, HAQ (STING variants (HAQ); [2]): 1.20 fold; Fold change related to DMSO control, WT (STING variants (WT); [2]): 1.52 fold
CCn1nc(C)cc1C(=O)Nc1nc2cc(C(N)=O)cc3c2n1C(C)(CN(C)CCc1ccccc1)CO3 (stereo not drawn) [Example 29, 2-(1-Ethyl-3-methyl-1H-pyrazole-5-carboxamido)-3-methyl-3-((methyl(phenethyl)amino)methyl)-3,4-dihydro-5-oxa-1,2a-diazaacenaphthylene-7-carboxamide]	1.14 fold	1.06 fold	–	–
CCn1nc(C)cc1C(=O)Nc1nc2cc(C(N)=O)cc3c2n1CC(C)(C)CN3CCOC [Example 73, 1-(1-ethyl-3-methyl-1H-pyrazole-5-carboxamido)-6-(2-methoxyethyl)-8,8-dimethyl-6,7,8,9-tetrahydro-2,6,9a-triazabenzo[cd]azulene-4-carboxamide]	–	–	6.8 µM	–
CCn1nc(C)cc1C(=O)Nc1nc2cc(C(N)=O)cc3c2n1[C@@H](COCc1ccccc1)CO3 [Example 30, (S)-3-((Benzyloxy)methyl)-2-(1-ethyl-3-methyl-1H-pyrazole-5-carboxamido)-3,4-dihydro-5-oxa-1,2a-diazaacenaphthylene-7-carboxamide]	35.09 fold	1.63 fold	–	–
